Source: patent US11066396B2 (priority 2016, dated 2021)

Key:
[1] = target: HDAC5 (Homo sapiens (Human), UniProt Q9UQL6); conditions: read-out: HDAC5 IC50
[2] = target: HDAC8 (Homo sapiens (Human), UniProt Q9BY41); conditions: read-out: HDAC8 IC50
[3] = target: HDAC1 (Homo sapiens (Human), UniProt Q13547); conditions: read-out: HDAC1 IC50
Sequence of HDAC1 (Q13547 whole entry): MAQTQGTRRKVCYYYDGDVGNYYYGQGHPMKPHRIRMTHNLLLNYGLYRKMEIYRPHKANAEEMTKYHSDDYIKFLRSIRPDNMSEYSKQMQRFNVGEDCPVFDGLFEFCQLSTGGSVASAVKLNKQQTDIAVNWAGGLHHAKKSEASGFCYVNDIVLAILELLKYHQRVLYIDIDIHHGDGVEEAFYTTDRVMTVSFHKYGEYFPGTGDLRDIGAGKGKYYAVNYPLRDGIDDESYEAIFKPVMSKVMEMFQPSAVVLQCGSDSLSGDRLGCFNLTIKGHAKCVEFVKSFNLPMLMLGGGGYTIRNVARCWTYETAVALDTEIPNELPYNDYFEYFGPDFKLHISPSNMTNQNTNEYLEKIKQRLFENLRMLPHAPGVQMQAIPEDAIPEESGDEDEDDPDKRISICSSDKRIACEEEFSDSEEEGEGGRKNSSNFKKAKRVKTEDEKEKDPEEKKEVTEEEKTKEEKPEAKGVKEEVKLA

Sequence of HDAC5 (Q9UQL6 656-1122): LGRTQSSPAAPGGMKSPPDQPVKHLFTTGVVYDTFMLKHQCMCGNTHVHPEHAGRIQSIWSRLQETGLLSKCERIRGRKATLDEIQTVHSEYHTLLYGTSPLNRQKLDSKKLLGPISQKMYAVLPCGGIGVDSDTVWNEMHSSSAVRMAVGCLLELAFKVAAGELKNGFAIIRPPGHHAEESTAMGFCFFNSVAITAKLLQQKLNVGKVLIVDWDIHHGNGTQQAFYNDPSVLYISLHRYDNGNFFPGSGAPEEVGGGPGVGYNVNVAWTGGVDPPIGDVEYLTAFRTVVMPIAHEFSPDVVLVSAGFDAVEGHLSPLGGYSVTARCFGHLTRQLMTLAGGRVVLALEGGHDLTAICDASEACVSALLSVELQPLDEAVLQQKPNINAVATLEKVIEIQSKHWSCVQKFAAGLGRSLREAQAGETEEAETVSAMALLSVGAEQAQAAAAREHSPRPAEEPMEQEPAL
Sequence of HDAC8 (Q9BY41 whole entry): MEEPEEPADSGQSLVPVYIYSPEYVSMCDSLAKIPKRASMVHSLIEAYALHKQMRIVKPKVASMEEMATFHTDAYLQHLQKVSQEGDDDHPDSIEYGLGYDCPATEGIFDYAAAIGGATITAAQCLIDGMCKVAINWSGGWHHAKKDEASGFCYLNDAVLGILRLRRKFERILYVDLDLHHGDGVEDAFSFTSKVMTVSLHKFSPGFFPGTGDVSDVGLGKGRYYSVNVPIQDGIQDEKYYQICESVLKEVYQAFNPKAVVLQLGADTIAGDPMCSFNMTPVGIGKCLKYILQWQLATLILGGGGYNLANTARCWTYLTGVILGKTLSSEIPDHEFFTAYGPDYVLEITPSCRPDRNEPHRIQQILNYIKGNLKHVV

O=c1[nH]c2ccccc2n(Cc2ccc(-c3noc(C(F)(F)F)n3)cn2)c1=O [Example 469, 1-({5-[5-(trifluoromethyl)-1,2,4-oxadiazol-3-yl]pyridin-2-yl}methyl)-1,4-dihydroquinoxaline-2,3-dione]
IC50 [1]: 22 nM
IC50 [2]: 1400 nM
IC50 [3]: 86 nM

CC(C)(C)OC(=O)[C@@H]1COCC(=O)N1c1ccc(-c2noc(C(F)(F)F)n2)c(F)c1 [Example 471, tert-butyl (3S)-4-{3-fluoro-4-[5-(trifluoromethyl)-1,2,4-oxadiazol-3-yl]phenyl}-5-oxomorpholine-3-carboxylate]
IC50 [1]: 54 nM
IC50 [2]: 3800 nM
IC50 [3]: 870 nM

COCc1cccc(CCOc2cc(-c3noc(C(F)(F)F)n3)ccn2)c1 [Example 476, 2-{2-[3-(methoxymethyl)phenyl]ethoxy}-4-[5-(trifluoromethyl)-1,2,4-oxadiazol-3-yl]pyridine]
IC50 [1]: 780 nM
IC50 [2]: 3000 nM
IC50 [3]: 1900 nM

O=C(C1CCS(=O)(=O)CC1)N(Cc1ccc(-c2noc(C(F)(F)F)n2)c(F)c1)c1cccc(C(F)(F)F)c1 [Example 489, N-({3-fluoro-4-[5-(trifluoromethyl)-1,2,4-oxadiazol-3-yl]phenyl}methyl)-1,1-dioxo-N-[3-(trifluoromethyl)phenyl]-llambda~6~-thiane-4-carboxamide]
IC50 [1]: 760 nM
IC50 [2]: 6900 nM
IC50 [3]: 950 nM

O=C(C1CCS(=O)(=O)CC1)N(Cc1ccc(-c2noc(C(F)(F)F)n2)cc1F)c1cccc(C(F)(F)F)c1 [Example 490, N-({2-fluoro-4-[5-(trifluoromethyl)-1,2,4-oxadiazol-3-yl]phenyl}methyl)-1,1-dioxo-N-[3-(trifluoromethyl)phenyl]-llambda~6~-thiane-4-carboxamide]
IC50 [1]: 520 nM
IC50 [2]: 3400 nM
IC50 [3]: 500 nM
